Residues, ends and D or L forms follow the SMILES beside them. *: point of attachment. Cbz = O=C(OCc1ccccc1)*

One test concerns the target T1, PPARγ (Homo sapiens, UniProt P37231).
T1 construct: containing the DEF region of the PPARγ (amino acids 183-505) fused to the pVP16 expression vector; expressed in transfected cells; host or cells: SW480 colon cancer cells; plasmid provided by Dr. Shigeaki Kato (University of Tokyo)
T1 sequence (P37231 183-505): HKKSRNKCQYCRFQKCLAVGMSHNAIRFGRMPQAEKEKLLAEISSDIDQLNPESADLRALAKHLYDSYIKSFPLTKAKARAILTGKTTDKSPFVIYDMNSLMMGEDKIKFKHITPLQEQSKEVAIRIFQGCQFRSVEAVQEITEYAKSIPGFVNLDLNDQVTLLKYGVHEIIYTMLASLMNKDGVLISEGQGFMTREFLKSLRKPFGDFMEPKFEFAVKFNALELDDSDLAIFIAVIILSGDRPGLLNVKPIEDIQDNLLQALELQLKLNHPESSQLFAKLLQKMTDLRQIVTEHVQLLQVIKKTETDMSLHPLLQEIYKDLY
The experiment in a line: Mammalian two-hybrid assay (VP-PPARγ / GAL4-coactivator) in SW480 cells. It counts as cell-based. The protocol:
The GAL4 reporter construct containing 5×GAL4 response elements (p GAL4) was provided by Dr. Marty Mayo (University of […], Chapel Hill, N.C.). The GAL4-coactivator fusion plasmids pM-SRC1, pMSRC2, pMSRC3, pM-DRIP205, pM-CARM-1 and PPARγ-VP16 fusion plasmid (Vp-PPARγ) containing the DEF region of the PPARγ (amino acids 183-505) fused to the pVP16 expression vector were provided by Dr. Shigeaki Kato (University of Tokyo, Tokyo, Japan). SW480 colon cancer cells were plated in 12-well tissue culture plates at 1×10^5 cells per well in DMEM/Ham's F-12 medium supplemented with 2.5% charcoal stripped FBS.
After allowing them to adhere overnight, transient transfections were carried out with GAL4-Luc (0.4 μg), β-GAL (0.04 μg), VP-PPARγ (0.04 μg), pM-SRC1 (0.04 μg), pM-PGC-1 (0.04 μg), pM-SMRT (0.04 μg), pM-TRAP220 (0.04 μg), pM-DRIP205 (0.04 μg), and pMCARM1 (0.04 μg) using LipofectAMINE2000 (Invitrogen) following the manufacturer's guidelines. After 6 hr of transfection, cells were treated in triplicate either with vehicle (DMSO) or the indicated compound suspended in complete medium for 20-24 hr. One hundred μL per well of 1× Reporter Lysis Buffer (Promega) was used to lyse the cells and 30 μl of this lysate was used to perform the luciferase and β-GAL assays using Lumicount (Perkin-Elmer Life and Analytical Sciences, Boston, Mass.). The luciferase activities obtained were normalized to the β-gal activity.

In test [1] the test system is HT-29 cells. The experiment in a line: KLF4 mRNA (RT-PCR) in HT-29 cells. It counts as cell-based, human. The protocol:
SW480 and HT29 colon cancer cells were treated either with vehicle (DMSO) or indicated compounds and after 24 hr total RNA was extracted using RNeasy Mini kit (Qiagen, Inc., Valencia, Calif.). RNA concentration was measured by UV 260:280 nm absorption ratio and 2 μg RNA was used to synthesize cDNA using Reverse Transcription System (Promega). PCR conditions were as follows: initial denaturation at 94° C. (1 min) followed by 28 cycles of denaturation for 30 s at 94° C., annealing for 60 s at 55° C. and extension at 72° C. for 60 s and a final extension step at 72° C. for 5 min. The mRNA levels were normalized using GAPDH as an internal housekeeping gene. Primers obtained from IDT and used for amplification are as follows: KLF4 (sense 5′-CTATGGCAGGGAGTCCGCTCC-3′ (SEQ ID NO: 1); antisense 5′-ATGACCGACGGGCTGCCGTAC-3′ (SEQ ID NO: 2)) and GAPDH (sense 5′-ACGGATTTGGTCGTATTGGGCG-3′ (SEQ ID NO: 3); antisense 5′-CTCCTGGAAGATGGTGATGG-3′ (SEQ ID NO: 4). PCR products were electrophoresed on 1% agarose gels containing ethidium bromide and visualized under UV transillumination.

For test [2], the system named is HT-29 cells. The settings on record: HT-29, earlier reports; cited from earlier work.
For test [3], the system named is SW480 cells. The settings on record: SW480, earlier reports; cited from earlier work.
The next test relates to LNCaP cells. The experiment in a line: Western blot analysis of protein expression in LNCaP cells. It counts as cell-based, Human. Particulars: 10 μM, compound alone. How it is done: Human carcinoma cell lines LNCaP (prostate) and SK-MEL2 (melanoma) were obtained from American Type Culture Collection (Manassas, Va.). Cell lines were maintained in RPMI 1640 (Sigma) supplemented with 0.22% sodium bicarbonate, 0.011% sodium pyruvate, 0.45% glucose, 0.24% HEPES, 10% FBS, and 10 mL/L of 100× Antibiotic Antimycotic solution (Sigma). Cells were maintained at 37° C. in the presence of 5% CO2.
An equal amount of cell lysate (60 μg/well) was separated by 7.5% to 12% SDS-PAGE, which was followed by immunoblotting onto polyvinylidene difluoride (Bio-Rad, Hercules, Calif.). After blocking in TBST-Blotto (10 mmol/L Tris-HCl, 150 mmol/L NaCl (pH 8.0), 0.05% Triton X-100, 5% nonfat dry milk) for 30 min, the membranes were incubated with primary antibodies overnight at 4° C. and then with horseradish peroxidase-conjugated secondary antibody for 2 hr at room temperature. Proteins were visualized using the chemiluminescence substrate (Perkin-Elmer Life Sciences) for 1 min and exposed to Kodak X-OMAT AR autoradiography film (Eastman Kodak, Rochester, N.Y.).
A general note: Immunoblotting shows a protein as a band on a membrane.

The subject of test [4] is SW480 cells. Particulars: SW480, reference [9]; cited from earlier work.

As for `COC(=O)[C@@]1(C)CCC2(C)CC[C@]3(C)C(=CC(=O)[C@@H]4C5(C)C=C(C#N)C(=O)C(C)(C)[C@@H]5CCC43C)C2C1` (stereo partly drawn) [β-CDODA-Me, Methyl 2-cyano-3,12-dioxo-18β-olean-1,12-diene-30-oic Acid, reference compound], the “luciferase activity, VP-PPARγ with GAL4 PGC-1 and GAL4 SRC-1” value on PPARγ is recorded as “significantly induced luciferase activity”. The “effect of T007 on induction of KLF4 mRNA” value with HT-29 cells [1] (HT-29, cotreatment with T007) is reported as “decreased significantly”. The “part of induced KLF4 mRNA response inhibited by T007” value in the test on HT-29 cells [1] (cotreatment with T007) is 60-80%.

`CC1(C)CC[C@]2(C(=O)O)CC[C@]3(C)[C@H](C(=O)C=C4[C@@]5(C)C=C(C#N)C(=O)C(C)(C)[C@@H]5CC[C@]43C)[C@@H]2C1` [CDDO]: the caveolin-1 induction result in the test with HT-29 cells [2] and with SW480 cells [3] was “inducing caveolin-1” each time.

With `CC1(C)C(=O)C(C#N)=C[C@]2(C)[C@H]3C(=O)C=C4[C@@H]5C[C@@](C)(C(=O)O)CC[C@]5(C)CC[C@@]4(C)[C@]3(C)CC[C@@H]12` [β-CDODA], in the test with HT-29 cells [2], the caveolin-1 induction result was “induced caveolin-1”.

Regarding `CC(C)C[C@@H](C=O)NC(=O)[C@H](CC(C)C)NC(=O)[C@H](CC(C)C)NC(=O)OCc1ccccc1` [MG132] (Cbz-Leu-Leu-Leu-aldehyde), the PARP cleavage entry with LNCaP cells is given as “induced caspase-dependent cleavage of PARP”.

Take `COC(=O)[C@@]1(C)CC[C@]2(C)CC[C@]3(C)C(=CC(=O)[C@@H]4[C@@]5(C)C=C(C#N)C(=O)C(C)(C)[C@@H]5CC[C@]43C)[C@H]2C1` [α-CDODA-Me]: in the test with SW480 cells [4], the “KLF4 mRNA” value is “enhanced KLF4 mRNA”. Further, the caveolin-1 induction result in the test on HT-29 cells [2] and in the test with SW480 cells [3] was “inducing caveolin-1” each time.
